Results from the supplement of paper PMC8253809.

Legend:
SUDIPGVI [1] = diffuse intrinsic pontine glioma line; test: EC50 (inflection of fitted growth-inhibition curve) (log10 M)
Procedure, shortened: (§1)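 Patient-derived pHGG/DIPG cell lines and astrocyte controls were plated in 384-well plates coated with 1% Geltrex and dosed by pin tool with a 10-point threefold dilution series (mean top concentration 35 μM), in triplicate. Cells were exposed for 7 days (3 days for iAstro) at 37 °C and 5% CO2. CellTiter-Glo luminescence was log2-transformed, normalised per plate to % activity between negative (solvent) and positive control wells, and pooled. EC50 and maximal response (yFin) were taken from whichever three- or four-parameter log-logistic fit had the lowest AICc.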

HGGX39 = paediatric high-grade glioma line; test: as above
Procedure, shortened: as §1

HABS = astrocyte control; test: as above
Procedure, shortened: as §1

DIPGX29 = H3.3 K27M diffuse intrinsic pontine glioma line; test: as above
Procedure, shortened: as §1

SUDIPGXIX = diffuse intrinsic pontine glioma line; test: as above
Procedure, shortened: as §1

HGGX2 = paediatric high-grade glioma line; test: as above
Procedure, shortened: as §1

DIPGX9 = diffuse intrinsic pontine glioma line; test: as above
Procedure, shortened: as §1

iAstro [2] = astrocyte control; test: as above
Procedure, shortened: as §1

SUDIPGXVII = diffuse intrinsic pontine glioma line; test: as above
Procedure, shortened: as §1

SUDIPGXXI = diffuse intrinsic pontine glioma line; test: as above
Procedure, shortened: as §1

HGGX42 = H3.3 G34R paediatric high-grade glioma line; test: as above
Procedure, shortened: as §1

DIPGX7 = H3.3 K27M diffuse intrinsic pontine glioma line; test: as above
Procedure, shortened: as §1

SUDIPGXIII = diffuse intrinsic pontine glioma line; test: as above
Procedure, shortened: as §1

DIPGX37 = H3.3 K27M diffuse intrinsic pontine glioma line; test: as above
Procedure, shortened: as §1

SUDIPGIV = diffuse intrinsic pontine glioma line; test: as above
Procedure, shortened: as §1

HGGX6 = H3.3 G34R paediatric high-grade glioma line; test: as above
Procedure, shortened: as §1

SUDIPGVI [3] = test: area under dose-response curve of % growth inhibition (log2 RLU vs DMSO / staurosporine), 1e-11 to 1e-4 M (% x log10 M); higher = more growth inhibition
Procedure, shortened: (§2)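 Patient-derived pHGG/DIPG cell lines and astrocyte controls were grown on 1% Geltrex-coated 384-well plates and exposed to a 10-point threefold dilution series (mean top concentration 35 μM), in triplicate. Exposure was 7 days (iAstro 3 days) at 37 °C, 5% CO2. CellTiter-Glo luminescence was log2-transformed and normalised per plate to % activity between solvent and positive controls. Area under the curve was taken by trapezoid rule from the fitted log-logistic curve, or from a smoothing spline when the sigmoid fit failed.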

iAstro [4] = test: as above
Procedure, shortened: as §2

Structure (SMILES) | EC50 (log10 M) (SUDIPGVI [1]) | EC50 (log10 M) (HGGX39) | EC50 (log10 M) (HABS) | EC50 (log10 M) (DIPGX29) | EC50 (log10 M) (SUDIPGXIX) | EC50 (log10 M) (HGGX2) | EC50 (log10 M) (DIPGX9) | EC50 (log10 M) (iAstro [2]) | EC50 (log10 M) (SUDIPGXVII) | EC50 (log10 M) (SUDIPGXXI) | EC50 (log10 M) (HGGX42) | EC50 (log10 M) (DIPGX7) | EC50 (log10 M) (SUDIPGXIII) | EC50 (log10 M) (DIPGX37) | EC50 (log10 M) (SUDIPGIV) | EC50 (log10 M) (HGGX6) | area under dose-response curve (SUDIPGVI [3]) | area under dose-response curve (iAstro [4])
CC(=O)c1cc([N+](=O)[O-])c(Sc2ccc(F)cc2F)s1 | -4.76 | -4.79 | -4.7 | -4.83 | -4.78 | -4.59 | -4.77 | -4.85 | -4.75 | -4.78 | -4.68 | -4.76 | -4.72 | -4.79 | -4.71 | -4.65 | 71.4 | 75.5
CC(C)(C)c1cnc(CSc2cnc(NC(=O)C3CCNCC3)s2)o1 | -6.37 | -6.02 | -6.64 | -6.2 | -6.11 | -6.28 | -6.71 | -6.22 | -6.08 | -6.91 | -6.48 | -5.84 | -5.95 | -6.21 | -6.15 | -5.8 | 196 | 55.9
CC(C)c1c2cc(-c3ccnc(NC4CCC(NC5CCOCC5)CC4)n3)ccc2nn1C (stereo not drawn) | -7 | -6.34 | -7.04 | -6.63 | -7.04 | -6.63 | -7.17 | -7.45 | -6.93 | -7.19 | -7.07 | -6.89 | -6.79 | -6.77 | -6.83 | -6.69 | 252 | 91.7
CC(C)c1cc(C(=O)N2Cc3ccc(CN4CCN(C)CC4)cc3C2)c(O)cc1O | -5.95 | -6.08 | -6.06 | -5.68 | -6.98 | -6.72 | -6.96 | -7.01 | -6.44 | -6.4 | -5.89 | -5.07 | -6.14 | -6.85 | -6.68 | -6.73 | 88.8 | 88
COc1cc(F)ccc1-c1ncnc(Nc2cccc(CS(C)(=N)=O)c2)n1 (stereo not drawn) | -5.33 | -5.23 | -5.83 | -5.41 | -5.55 | -5.75 | -5.9 | -6.51 | -5.15 | -5.99 | -6.01 | -5.15 | -4.98 | -5.68 | -5.38 | -5.44 | 120 | 57.6
Cc1ccc2nc(NCCN)c3ncc(C)n3c2c1 | -4.96 | -4.91 | -4.94 | -4.95 | -4.93 | -5.19 | -5.01 | -5.39 | -4.88 | -5.23 | -5 | -4.87 | -4.89 | -4.96 | -4.93 | -4.92 | 67 | 35.1
O=C(c1ccccc1)c1ccc2nc(NC(=O)c3csc(C4CCN(c5ncnc6ccsc56)CC4)n3)[nH]c2c1 | -5.46 | -5.87 | -5.18 | -5.26 | -4.95 | -5.06 | -5.03 | -5.2 | -5.91 | -5.2 | -5.14 | -5.45 | -5.72 | -5.87 | -5.86 | -5.19 | 67 | 88.4
c1ccc2c(-c3cnn4cc(-c5ccc(N6CCNCC6)cc5)cnc34)ccnc2c1 | -5.58 | -5.65 | -5.19 | -5.73 | -5.66 | -5.78 | -5.68 | -5.51 | -5.61 | -6.41 | -5.68 | -5.63 | -5.56 | -5.65 | -5.52 | -5.58 | 166 | 137
COc1ccc(C[C@H](NC(=O)[C@H](C)NC(=O)CN2CCOCC2)C(=O)N[C@@H](Cc2ccccc2)C(=O)C2(C)CO2)cc1 (stereo in doubt) [ONX-0914] | -6.72 | -6.36 | -6.19 | -6.14 | -6.58 | -7.17 | -6.6 | -7.31 | -5.91 | -7.49 | -6.73 | -6.25 | -6.56 | -6.53 | -6.84 | -5.97 | 233 | 243
CCN1CCN(Cc2ccc(Nc3ncc(F)c(-c4cc(F)c5nc(C)n(C(C)C)c5c4)n3)nc2)CC1 [ABEMACICLIB] | -6.09 | -6.29 | – | -6.78 | -6.26 | -6.84 | -6.86 | -6.74 | -6.01 | -6.6 | -6.74 | -6.11 | -6.07 | -6.56 | -6.04 | -5.83 | 102 | 161
CN(C)C/C=C/C(=O)Nc1cc2c(Nc3ccc(F)c(Cl)c3)ncnc2cc1O[C@H]1CCOC1 [AFATINIB] | -4.84 | -4.73 | -4.84 | -4.73 | -4.83 | -4.92 | -4.88 | -4.88 | -4.81 | -5.4 | -4.86 | -4.85 | -4.71 | -4.72 | -4.82 | -4.75 | 130 | 80.2
COCC1(CO)C(=O)C2CCN1CC2 (stereo not drawn) [APR-246] | -4.72 | – | – | -4.85 | -4.78 | -4.71 | -4.82 | -4.91 | -4.81 | -5.41 | -4.72 | -4.79 | -4.77 | -4.79 | -4.81 | -4.81 | 72.7 | 82.7
O=C(Nc1c[nH]nc1-c1nc2ccc(CN3CCOCC3)cc2[nH]1)NC1CC1 [AT9283] | -4.97 | -6.03 | -5.83 | -5.17 | -5.33 | -4.91 | -5.66 | -5.54 | -4.95 | -6.69 | -5.4 | -4.88 | -4.79 | -4.79 | -5.66 | -5.15 | 97.6 | 42.3
CC(=O)OC[C@H]1O[C@@H]([S-])[C@H](OC(C)=O)[C@@H](OC(C)=O)[C@@H]1OC(C)=O.CCP(CC)CC.[Au+] [AURANOFIN] | -5.76 | -5.52 | -5.29 | -6.49 | -5.93 | -6.28 | -5.78 | -5.84 | -5.45 | -6.66 | -6.16 | -5.9 | -5.39 | -6.41 | -5.57 | -6.35 | 202 | 196
COC(=O)[C@]12CCC(C)(C)C[C@H]1[C@H]1C(=O)C=C3[C@@]4(C)C=C(C#N)C(=O)C(C)(C)[C@@H]4CC[C@@]3(C)[C@]1(C)CC2 [BARDOXOLONE METHYL] | -5.63 | -6.01 | -5.66 | -6.17 | -5.53 | -5.74 | -5.73 | -5.99 | -5.59 | -6.24 | -5.83 | -5.56 | -5.62 | -6.09 | -5.65 | -5.93 | 155 | 189
CN1[C@@H]2CC[C@H]1C[C@@H](OC(=O)c1cc(Cl)cc(Cl)c1)C2 [BEMESETRON] | – | -5.05 | -4.73 | -5.09 | -4.85 | -4.99 | -4.9 | -5.08 | -4.9 | -5.63 | -5.38 | -5.23 | – | -5.32 | -4.99 | -4.86 | 15.4 | 35.7
CC(C)(C)OC(=O)Nc1ccc(-c2cc(C(=O)NCCCCCCC(=O)NO)no2)cc1 [BML-281] | -4.92 | -4.94 | -4.89 | -5.53 | -5 | -5.43 | -5.48 | -5.37 | -5.09 | -6.1 | -5.45 | -4.92 | -4.89 | -5.46 | -5.19 | -5.04 | 65.9 | 61.4
CC(C)C[C@H](NC(=O)[C@H](CCc1ccccc1)NC(=O)CN1CCOCC1)C(=O)N[C@@H](Cc1ccccc1)C(=O)N[C@@H](CC(C)C)C(=O)[C@@]1(C)CO1 [CARFILZOMIB] | -6.71 | -6.2 | -6.6 | -5.73 | -6.53 | -7.54 | -7 | -8.68 | -6.36 | – | -6.77 | -7.29 | -5.36 | -6.68 | -7.24 | -6.37 | 259 | 379
Cc1noc2c1-c1ccccc1C(c1ccc(Cl)cc1)=N[C@H]2CC(N)=O [CPI-0610] | -5.11 | -4.96 | -5.3 | -5.05 | -5.17 | -5.42 | -5.71 | -5.98 | -5.39 | -6.13 | -5.3 | -4.88 | – | – | -5.51 | -5.43 | 121 | 67
CCCc1cc(C)[nH]c(=O)c1CNC(=O)c1cc(-c2ccnc(N3CCN(C)CC3)c2)cc2c1cnn2C(C)C [GSK343] | -4.59 | -4.59 | -4.81 | -4.6 | -4.69 | -4.78 | -4.74 | -4.88 | – | -4.81 | -4.7 | -4.63 | -4.57 | -4.59 | -4.69 | -4.6 | 66.2 | 58.3
C=CCn1c(=O)c2cnc(Nc3ccc(N4CCN(C)CC4)cc3)nc2n1-c1cccc(C(C)(C)O)n1 [MK-1775] | – | -5.05 | -5.41 | -6.91 | -6.03 | -6.67 | -5.33 | -6.04 | -5.54 | -6.07 | -5.45 | -5.75 | – | -6.2 | -5.92 | -5.72 | 27.9 | 71.1
COc1ncc(-c2ccc3nccc(-c4ccnnc4)c3c2)cc1NS(=O)(=O)c1ccc(F)cc1F [OMIPALISIB] | -6.23 | -5.79 | -6.58 | -5.88 | -7 | -6 | -7.52 | -5.44 | -6.19 | -7.11 | -6.22 | – | -5.65 | -6.38 | -6.11 | -4.77 | 257 | 64
CCOc1cc(C(C)(C)C)ccc1C1=N[C@@](C)(c2ccc(Cl)cc2)[C@@](C)(c2ccc(Cl)cc2)N1C(=O)N1CCN(CCCS(C)(=O)=O)CC1 [RG7112] | -4.87 | -4.85 | -5.4 | -4.8 | -5.56 | -4.78 | -5.7 | -4.85 | -4.8 | -6.49 | -4.64 | -4.82 | -4.75 | – | -4.86 | -4.71 | 30.5 | 69.8
C=CCNC1=C2C[C@@H](C)C[C@H](OC)[C@H](O)[C@@H](C)/C=C(\C)[C@H](OC(N)=O)[C@@H](OC)/C=C\C=C(/C)C(=O)NC(=CC1=O)C2=O [TANESPIMYCIN] | -5.19 | -6.48 | -5.41 | -5.85 | -6.32 | -4.97 | -6.85 | -5.41 | -4.99 | -5.76 | -6.01 | – | -4.95 | -6.99 | -5.88 | -5.84 | 42.2 | 50.9
